Reference: ChEMBL document CHEMBL4507329, “Data for DCP probe BTZO-1” (2021)

Experiments:
[1] = test system: Tyrosine-protein kinase ABL1 (Homo sapiens), P00519 [E255K]; conditions: Compound concentration 1000.0 nM
[2] = test system: Tyrosine-protein kinase ABL1 (Homo sapiens), P00519 [F317I]; conditions: Compound concentration 1000.0 nM
[3] = test system: Tyrosine-protein kinase ABL1 (Homo sapiens), P00519 [F317L]; conditions: Compound concentration 1000.0 nM
[4] = test system: Tyrosine-protein kinase ABL1 (Homo sapiens), P00519 [M351T]; conditions: Compound concentration 1000.0 nM
[5] = test system: Tyrosine-protein kinase ABL1 (Homo sapiens), P00519 [Q252H]; conditions: Compound concentration 1000.0 nM
[6] = target: Atypical kinase COQ8A, mitochondrial (Homo sapiens) (UniProt Q8NI60); conditions: Compound concentration 1000.0 nM
[7] = target: Calcium/calmodulin-dependent protein kinase type 1B (Homo sapiens) (UniProt Q6P2M8); conditions: Compound concentration 1000.0 nM
[8] = target: Cyclin-dependent kinase 2 (Homo sapiens) (UniProt P24941); conditions: Compound concentration 1000.0 nM
[9] = target: Cyclin-dependent kinase 7 (Homo sapiens) (UniProt P50613); conditions: Compound concentration 1000.0 nM
[10] = target: Casein kinase I isoform gamma-2 (Homo sapiens) (UniProt P78368); conditions: Compound concentration 1000.0 nM
[11] = target: Serine/threonine-protein kinase DCLK2 (Homo sapiens) (UniProt Q8N568); conditions: Compound concentration 1000.0 nM
[12] = target: Epithelial discoidin domain-containing receptor 1 (Homo sapiens) (UniProt Q08345); conditions: Compound concentration 1000.0 nM
[13] = test system: Epidermal growth factor receptor (Homo sapiens), P00533 [L858R]; conditions: Compound concentration 1000.0 nM
[14] = target: Tyrosine-protein kinase Fer (Homo sapiens) (UniProt P16591); conditions: Compound concentration 1000.0 nM
[15] = target: Fibroblast growth factor receptor 2 (Homo sapiens) (UniProt P21802); conditions: Compound concentration 1000.0 nM
[16] = test system: Receptor-type tyrosine-protein kinase FLT3 (Homo sapiens), P36888 [K663Q]; conditions: Compound concentration 1000.0 nM
[17] = target: Beta-adrenergic receptor kinase 1 (Homo sapiens) (UniProt P25098); conditions: Compound concentration 1000.0 nM
[18] = target: Inhibitor of nuclear factor kappa-B kinase subunit alpha (Homo sapiens) (UniProt O15111); conditions: Compound concentration 1000.0 nM
[19] = target: Mitogen-activated protein kinase 10 (Homo sapiens) (UniProt P53779); conditions: Compound concentration 1000.0 nM
[20] = test system: Mast/stem cell growth factor receptor Kit (Homo sapiens), P10721 [V559D]; conditions: Compound concentration 1000.0 nM
[21] = target: LIM domain kinase 1 (Homo sapiens) (UniProt P53667); conditions: Compound concentration 1000.0 nM
[22] = target: Mitogen-activated protein kinase kinase kinase 4 (Homo sapiens) (UniProt Q9Y6R4); conditions: Compound concentration 1000.0 nM
[23] = target: Mitogen-activated protein kinase kinase kinase kinase 2 (Homo sapiens) (UniProt Q12851); conditions: Compound concentration 1000.0 nM
[24] = target: Mitogen-activated protein kinase kinase kinase kinase 4 (Homo sapiens) (UniProt O95819); conditions: Compound concentration 1000.0 nM
[25] = target: Serine/threonine-protein kinase Nek1 (Homo sapiens) (UniProt Q96PY6); conditions: Compound concentration 1000.0 nM
[26] = target: Mitogen-activated protein kinase 12 (Homo sapiens) (UniProt P53778); conditions: Compound concentration 1000.0 nM
[27] = target: Cyclin-dependent kinase 18 (Homo sapiens) (UniProt Q07002); conditions: Compound concentration 1000.0 nM
[28] = target: Cyclin-dependent kinase 2 homolog (Plasmodium falciparum (isolate 3D7)) (UniProt P61075); conditions: Compound concentration 1000.0 nM
[29] = target: Phosphorylase b kinase regulatory subunit alpha, liver isoform (Homo sapiens) (UniProt P46019); conditions: Compound concentration 1000.0 nM
[30] = target: Phosphatidylinositol 3-kinase C2 domain-containing subunit gamma (Homo sapiens) (UniProt O75747); conditions: Compound concentration 1000.0 nM
[31] = test system: Phosphatidylinositol 4,5-bisphosphate 3-kinase catalytic subunit alpha isoform (Homo sapiens), P42336 [C420R]; conditions: Compound concentration 1000.0 nM
[32] = target: Phosphatidylinositol 4-phosphate 5-kinase type-1 gamma (Homo sapiens) (UniProt O60331); conditions: Compound concentration 1000.0 nM
[33] = target: Phosphatidylinositol 5-phosphate 4-kinase type-2 gamma (Homo sapiens) (UniProt Q8TBX8); conditions: Compound concentration 1000.0 nM
[34] = target: cGMP-dependent protein kinase 1 (Homo sapiens) (UniProt Q13976); conditions: Compound concentration 1000.0 nM
[35] = target: Protein-tyrosine kinase 2-beta (Homo sapiens) (UniProt Q14289); conditions: Compound concentration 1000.0 nM
[36] = target: STE20-like serine/threonine-protein kinase (Homo sapiens) (UniProt Q9H2G2); conditions: Compound concentration 1000.0 nM
[37] = target: Tyrosine-protein kinase Srms (Homo sapiens) (UniProt Q9H3Y6); conditions: Compound concentration 1000.0 nM
[38] = target: Mitogen-activated protein kinase kinase kinase 7 (Homo sapiens) (UniProt O43318); conditions: Compound concentration 1000.0 nM
[39] = target: Serine/threonine-protein kinase TAO1 (Homo sapiens) (UniProt Q7L7X3); conditions: Compound concentration 1000.0 nM
[40] = target: NT-3 growth factor receptor (Homo sapiens) (UniProt Q16288); conditions: Compound concentration 1000.0 nM
[41] = target: Testis-specific serine/threonine-protein kinase 3 (Homo sapiens) (UniProt Q96PN8); conditions: Compound concentration 1000.0 nM
[42] = target: Tyrosine-protein kinase TXK (Homo sapiens) (UniProt P42681); conditions: Compound concentration 1000.0 nM
[43] = target: Tyrosine-protein kinase Yes (Homo sapiens) (UniProt P07947); conditions: Compound concentration 1000.0 nM
[44] = target: Tyrosine-protein kinase ZAP-70 (Homo sapiens) (UniProt P43403); conditions: Compound concentration 1000.0 nM
[45] = target: Beta-3 adrenergic receptor (Homo sapiens) (UniProt P13945); conditions: Compound concentration 10.0 uM
Sequence of Beta-3 adrenergic receptor (Homo sapiens) (P13945 whole entry, looked up): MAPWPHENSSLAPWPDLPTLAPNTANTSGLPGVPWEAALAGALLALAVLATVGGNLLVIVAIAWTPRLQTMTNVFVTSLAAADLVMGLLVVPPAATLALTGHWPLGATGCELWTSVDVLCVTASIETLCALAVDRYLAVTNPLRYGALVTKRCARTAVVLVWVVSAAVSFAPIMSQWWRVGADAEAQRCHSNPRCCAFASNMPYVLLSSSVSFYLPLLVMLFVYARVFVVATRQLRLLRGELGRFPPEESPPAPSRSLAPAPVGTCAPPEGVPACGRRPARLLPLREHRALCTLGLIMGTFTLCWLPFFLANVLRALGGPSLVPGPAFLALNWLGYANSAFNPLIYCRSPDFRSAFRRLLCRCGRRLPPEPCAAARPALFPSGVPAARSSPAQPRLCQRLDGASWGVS

Sequence of Mast/stem cell growth factor receptor Kit (Homo sapiens), P10721 [V559D] (P10721 whole entry V559D, the tested form may be a part): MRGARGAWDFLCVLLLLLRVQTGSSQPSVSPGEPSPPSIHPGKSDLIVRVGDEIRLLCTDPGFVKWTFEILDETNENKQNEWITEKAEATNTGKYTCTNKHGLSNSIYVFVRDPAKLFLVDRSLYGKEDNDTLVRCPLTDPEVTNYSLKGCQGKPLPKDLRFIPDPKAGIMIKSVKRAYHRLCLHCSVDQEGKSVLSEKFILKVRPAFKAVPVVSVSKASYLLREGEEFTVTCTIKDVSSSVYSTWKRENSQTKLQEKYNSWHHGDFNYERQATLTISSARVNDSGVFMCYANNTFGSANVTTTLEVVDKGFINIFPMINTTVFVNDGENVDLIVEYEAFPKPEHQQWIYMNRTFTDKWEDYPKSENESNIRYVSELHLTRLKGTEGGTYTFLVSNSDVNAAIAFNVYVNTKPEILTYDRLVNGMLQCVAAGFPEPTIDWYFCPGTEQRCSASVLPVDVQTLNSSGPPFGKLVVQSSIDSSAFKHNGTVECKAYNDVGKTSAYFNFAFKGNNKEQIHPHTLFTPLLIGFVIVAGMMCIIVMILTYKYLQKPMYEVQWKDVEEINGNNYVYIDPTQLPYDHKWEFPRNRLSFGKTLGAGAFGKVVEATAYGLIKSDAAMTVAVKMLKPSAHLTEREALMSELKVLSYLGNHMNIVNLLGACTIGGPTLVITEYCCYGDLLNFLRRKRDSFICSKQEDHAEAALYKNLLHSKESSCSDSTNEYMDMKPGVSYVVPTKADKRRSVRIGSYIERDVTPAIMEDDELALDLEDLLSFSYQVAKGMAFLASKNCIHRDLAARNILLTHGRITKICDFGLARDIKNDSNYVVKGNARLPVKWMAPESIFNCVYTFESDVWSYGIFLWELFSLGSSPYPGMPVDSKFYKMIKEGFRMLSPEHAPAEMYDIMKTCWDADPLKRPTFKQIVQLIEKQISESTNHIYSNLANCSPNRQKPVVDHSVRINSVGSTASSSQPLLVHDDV
Sequence of Serine/threonine-protein kinase Nek1 (Homo sapiens) (Q96PY6 whole entry): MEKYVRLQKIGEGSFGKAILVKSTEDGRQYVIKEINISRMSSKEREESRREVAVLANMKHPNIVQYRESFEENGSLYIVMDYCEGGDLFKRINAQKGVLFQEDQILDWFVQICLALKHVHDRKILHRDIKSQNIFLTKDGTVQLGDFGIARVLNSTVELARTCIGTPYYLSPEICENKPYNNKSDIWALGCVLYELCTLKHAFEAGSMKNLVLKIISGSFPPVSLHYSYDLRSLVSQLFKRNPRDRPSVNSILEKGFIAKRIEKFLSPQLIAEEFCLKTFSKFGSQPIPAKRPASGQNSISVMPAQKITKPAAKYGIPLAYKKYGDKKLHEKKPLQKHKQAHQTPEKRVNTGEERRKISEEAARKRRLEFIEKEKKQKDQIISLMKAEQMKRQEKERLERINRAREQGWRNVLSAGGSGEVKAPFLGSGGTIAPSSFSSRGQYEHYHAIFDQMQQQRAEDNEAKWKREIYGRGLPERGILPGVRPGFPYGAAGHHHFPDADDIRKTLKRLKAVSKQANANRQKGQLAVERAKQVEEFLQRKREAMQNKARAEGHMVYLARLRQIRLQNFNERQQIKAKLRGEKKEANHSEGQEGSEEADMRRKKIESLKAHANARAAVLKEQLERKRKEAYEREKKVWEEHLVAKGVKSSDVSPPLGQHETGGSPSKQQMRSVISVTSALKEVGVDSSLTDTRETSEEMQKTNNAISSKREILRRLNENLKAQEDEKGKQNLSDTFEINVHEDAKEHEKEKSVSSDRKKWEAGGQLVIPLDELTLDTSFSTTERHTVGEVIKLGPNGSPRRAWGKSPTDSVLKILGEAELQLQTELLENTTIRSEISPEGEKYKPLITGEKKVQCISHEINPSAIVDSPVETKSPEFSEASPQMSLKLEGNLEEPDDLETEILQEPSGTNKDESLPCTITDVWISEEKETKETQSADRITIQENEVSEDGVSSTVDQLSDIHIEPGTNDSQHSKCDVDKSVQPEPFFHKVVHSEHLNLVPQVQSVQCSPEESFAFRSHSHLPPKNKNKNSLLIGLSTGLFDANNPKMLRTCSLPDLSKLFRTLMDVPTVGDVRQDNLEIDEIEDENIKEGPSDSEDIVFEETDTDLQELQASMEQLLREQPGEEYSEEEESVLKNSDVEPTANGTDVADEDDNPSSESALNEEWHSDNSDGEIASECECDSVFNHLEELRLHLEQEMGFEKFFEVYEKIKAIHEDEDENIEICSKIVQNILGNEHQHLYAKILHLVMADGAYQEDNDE
Sequence of Fibroblast growth factor receptor 2 (Homo sapiens) (P21802 22-821 limits assumed): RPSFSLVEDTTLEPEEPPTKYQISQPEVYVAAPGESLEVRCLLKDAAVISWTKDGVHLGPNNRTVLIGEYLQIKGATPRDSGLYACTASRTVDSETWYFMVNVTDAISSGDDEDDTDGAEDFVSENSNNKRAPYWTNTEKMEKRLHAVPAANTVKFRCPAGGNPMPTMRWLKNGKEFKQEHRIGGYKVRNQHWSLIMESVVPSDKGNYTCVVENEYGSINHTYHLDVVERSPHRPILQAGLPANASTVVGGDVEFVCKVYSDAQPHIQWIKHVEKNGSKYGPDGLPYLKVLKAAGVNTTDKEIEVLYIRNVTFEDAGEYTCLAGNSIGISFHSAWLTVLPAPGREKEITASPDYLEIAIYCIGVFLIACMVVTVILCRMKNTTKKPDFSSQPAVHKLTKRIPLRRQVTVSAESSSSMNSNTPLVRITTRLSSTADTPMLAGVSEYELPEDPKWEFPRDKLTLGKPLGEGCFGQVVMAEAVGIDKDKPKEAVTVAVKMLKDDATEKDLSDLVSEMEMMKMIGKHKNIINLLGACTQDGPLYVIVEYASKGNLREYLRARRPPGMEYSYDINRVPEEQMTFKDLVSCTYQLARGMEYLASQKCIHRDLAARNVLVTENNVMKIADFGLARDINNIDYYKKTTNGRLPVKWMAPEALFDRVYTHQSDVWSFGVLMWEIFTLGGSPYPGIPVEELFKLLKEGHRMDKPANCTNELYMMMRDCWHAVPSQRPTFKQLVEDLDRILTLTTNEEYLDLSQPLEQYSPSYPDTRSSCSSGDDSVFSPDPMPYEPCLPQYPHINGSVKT
Sequence of Phosphatidylinositol 5-phosphate 4-kinase type-2 gamma (Homo sapiens) (Q8TBX8 whole entry): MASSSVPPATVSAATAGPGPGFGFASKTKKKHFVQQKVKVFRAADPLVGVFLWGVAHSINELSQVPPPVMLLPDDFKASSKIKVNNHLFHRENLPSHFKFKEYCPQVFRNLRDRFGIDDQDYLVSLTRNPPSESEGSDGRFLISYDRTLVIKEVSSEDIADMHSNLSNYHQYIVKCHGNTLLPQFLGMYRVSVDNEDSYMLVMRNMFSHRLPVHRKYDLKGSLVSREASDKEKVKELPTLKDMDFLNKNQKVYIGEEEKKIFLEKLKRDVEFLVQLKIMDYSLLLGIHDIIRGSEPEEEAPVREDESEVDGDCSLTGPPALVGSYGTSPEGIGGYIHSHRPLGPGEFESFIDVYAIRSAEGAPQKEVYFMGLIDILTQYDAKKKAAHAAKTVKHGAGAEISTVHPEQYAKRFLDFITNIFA
Sequence of STE20-like serine/threonine-protein kinase (Homo sapiens) (Q9H2G2 whole entry, looked up): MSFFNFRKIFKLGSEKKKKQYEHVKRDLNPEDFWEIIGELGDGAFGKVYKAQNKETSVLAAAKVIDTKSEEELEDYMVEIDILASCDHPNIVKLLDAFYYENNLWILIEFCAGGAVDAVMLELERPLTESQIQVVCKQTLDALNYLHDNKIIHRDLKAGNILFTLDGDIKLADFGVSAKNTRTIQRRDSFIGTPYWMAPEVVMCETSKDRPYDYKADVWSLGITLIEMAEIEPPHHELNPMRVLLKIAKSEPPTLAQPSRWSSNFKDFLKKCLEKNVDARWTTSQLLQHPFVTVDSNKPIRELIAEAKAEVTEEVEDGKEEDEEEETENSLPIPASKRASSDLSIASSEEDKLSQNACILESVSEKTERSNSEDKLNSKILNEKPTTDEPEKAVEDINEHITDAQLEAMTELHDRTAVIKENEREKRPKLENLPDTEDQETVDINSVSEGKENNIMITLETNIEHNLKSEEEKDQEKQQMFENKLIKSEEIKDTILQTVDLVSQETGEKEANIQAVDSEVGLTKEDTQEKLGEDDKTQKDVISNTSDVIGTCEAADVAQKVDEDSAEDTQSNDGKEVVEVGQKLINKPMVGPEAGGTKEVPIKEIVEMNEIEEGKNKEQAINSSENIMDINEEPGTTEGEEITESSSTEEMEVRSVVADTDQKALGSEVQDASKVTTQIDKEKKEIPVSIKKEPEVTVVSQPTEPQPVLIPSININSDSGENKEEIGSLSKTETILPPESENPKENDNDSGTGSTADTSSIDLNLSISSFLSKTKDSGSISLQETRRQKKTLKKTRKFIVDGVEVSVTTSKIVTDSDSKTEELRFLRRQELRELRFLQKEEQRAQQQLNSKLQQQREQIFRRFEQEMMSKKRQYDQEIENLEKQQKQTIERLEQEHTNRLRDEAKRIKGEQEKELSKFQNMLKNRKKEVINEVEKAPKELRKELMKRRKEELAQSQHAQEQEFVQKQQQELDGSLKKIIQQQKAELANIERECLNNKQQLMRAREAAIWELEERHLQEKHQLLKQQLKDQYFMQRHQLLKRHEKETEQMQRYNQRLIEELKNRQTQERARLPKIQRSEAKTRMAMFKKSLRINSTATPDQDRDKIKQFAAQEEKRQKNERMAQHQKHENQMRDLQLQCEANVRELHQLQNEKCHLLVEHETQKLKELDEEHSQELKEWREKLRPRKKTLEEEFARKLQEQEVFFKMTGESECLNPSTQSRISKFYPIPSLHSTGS

O=C1NC(c2ccccn2)Sc2ccccc21 (stereo not given) [BTZO-4]
inactive: residual activity [1] 77% | residual activity [2] 90% | residual activity [3] 100% | residual activity [4] 100% | residual activity [5] 73% | residual activity [6] 98% | residual activity [7] 71% | residual activity [8] 81% | residual activity [9] 77% | residual activity [10] 88% | residual activity [11] 92% | residual activity [12] 86% | residual activity [13] 86% | residual activity [14] 84% | residual activity [15] 100% | residual activity [16] 82% | residual activity [17] 58% | residual activity [18] 100% | residual activity [19] 100% | residual activity [20] 100% | residual activity [21] 78% | residual activity [22] 100% | residual activity [23] 83% | residual activity [24] 100% | residual activity [25] 100% | residual activity [26] 51% | residual activity [27] 93% | residual activity [28] 100% | residual activity [29] 73% | residual activity [30] 100% | residual activity [31] 100% | residual activity [32] 77% | residual activity [33] 100% | residual activity [34] 100% | residual activity [35] 76% | residual activity [36] 76% | residual activity [37] 84% | residual activity [38] 99% | residual activity [39] 96% | residual activity [40] 81% | residual activity [41] 88% | residual activity [42] 100% | residual activity [43] 100% | residual activity [44] 90% | inhibition [45] 32.4%

O=c1nc(-c2ccccn2)sc2ccccc12 [BTZO-1]
inactive: residual activity [1] 100% | residual activity [2] 100% | residual activity [3] 100% | residual activity [4] 100% | residual activity [5] 82% | residual activity [6] 88% | residual activity [7] 56% | residual activity [8] 96% | residual activity [9] 69% | residual activity [10] 74% | residual activity [11] 97% | residual activity [12] 85% | residual activity [13] 81% | residual activity [14] 94% | residual activity [15] 100% | residual activity [16] 100% | residual activity [17] 65% | residual activity [18] 100% | residual activity [19] 100% | residual activity [20] 95% | residual activity [21] 84% | residual activity [22] 92% | residual activity [23] 100% | residual activity [24] 100% | residual activity [25] 100% | residual activity [26] 58% | residual activity [27] 94% | residual activity [28] 100% | residual activity [29] 77% | residual activity [30] 100% | residual activity [31] 94% | residual activity [32] 84% | residual activity [33] 98% | residual activity [34] 100% | residual activity [35] 100% | residual activity [36] 85% | residual activity [37] 87% | residual activity [38] 78% | residual activity [39] 92% | residual activity [40] 72% | residual activity [41] 86% | residual activity [42] 81% | residual activity [43] 100% | residual activity [44] 100% | inhibition [45] 20.1%
